Data: patent US20190030036A1, “PHOSPHODIESTERASE INHIBITOR TREATMENT” (Cyrano Therapeutics, Inc., priority 2013, published 2019)

Legend:
asthmatic patients = assay: sGaw after inhaled dry powder in asthmatic patients (Examples 5, 6)
Description: To test this theory, asthmatic patients are enrolled in a dose escalating single blind study. On arrival to the clinic, subjects are allowed to rest for 20 minutes before baseline measurements of FEV1 (six recordings) and sGaw (five recordings) are made. Subjects receive a dry powder dispenser loaded with a dose of 2 mg theophylline or a dry powder carrier. […] After each inhalation, measurements of sGaw are made at 1, 3, 5, 10, 15, 20, 25, and 30 minutes.
On completion of the last recording, subjects inhale a 200 μg dose of salbutamol from a metered inhaler and a further measurement of sGaw is made after 15 minutes. Subjects are also monitored for coughing and are questioned about the taste of the drug.
Asthmatic patients are enrolled in a dose escalating single blind study. On arrival to the clinic, subjects are allowed to rest for 20 minutes before baseline measurements of FEV1 (six recordings) and sGaw (five recordings) are made. Subjects receive a dry powder dispenser loaded with a dose of 1 mg IBMX formulated as a dry powder or a dry powder carrier. […] After each inhalation, measurements of sGaw are made at 1, 3, 5, 10, 15, 20, 25, and 30 minutes.
On completion of the last recording, subjects inhale a 200 μg dose of salbutamol from a metered inhaler and a further measurement of sGaw made after 15 minutes. Subjects are also be monitored for coughing and are questioned about the taste of the drug.

PDE = conditions: non-specific PDE inhibitor; cited from earlier work
patients with hyposmia = assay: Subjective overall change in smell function; open trial of oral theophylline; format: in vivo, human; conditions: cilostazol added to 600 mg or 800 mg of theophylline in patients who improved <5%
Description: Independently, patients were also required to grade their ability to smell daily on a scale from 0-100, with 0 reflecting no overall smell function over a 24 hour period, 100 reflecting normal overall smell function over this period and numbers from 0-100 reflecting their estimation of their overall ability to smell odors over this period.
After determination of hyposmia, patients were treated in an open label, fixed design, controlled open trial. Patients were given an oral extended release theophylline in divided daily doses taken in the middle of breakfast and lunch. All patients were initially given 200 mg of theophylline; changes in this dose were made based upon subjective responses to therapy. If at a subsequent return visit, patients reported ≥5% subjective improvement in overall smell function, they continued on this same dose of theophylline and were reevaluated after four to six months of continued treatment. Results from any subsequent return from these improved patients were not included in any subsequent data report. All subsequent comparisons between treated and untreated patients were made only between those patients continuing in the study compared to their own measurements obtained in the untreated state. If patients reported <5% subjective improvement, their theophylline dose was increased by 200 mg daily and they were scheduled for retesting at the study site after two to four months at this new dosage. For patients that reported <5% improvement, this sequence continued until patients reached 800 mg of theophylline, at which time the study was considered completed.
Patients returned for reevaluation after two to four months of treatment. Measurements of blood serum theophylline were measured by a fluorescence polarization assay (Abbott, Chicago, Ill.). At this time, subjective changes in smell function were measured independently (compared to patient's memory of previous normal smell function monitored by use of the patients' daily measurements) using the scale from −100−0-+100 previously described. After independently recording their subjective responses, smell function was measured for all four odors with DT, RT, ME and H determined without recourse to prior measurements.
Subjective overall changes in smell acuity were reported by telephone and by FAX or email at two—four month intervals after treatment was initiated using the standardized form in which they measured daily changes in smell acuity using the −100−0-+100 scale as noted above. Using the same criteria noted above, if at their initial two—four month call-in they reported improvement in smell acuity of ≥5%, they continued at 200 mg and returned to the study site at four—six months on this treatment dose. If they reported improvement in smell acuity of <5% their dose of theophylline was increased to 400 mg for an additional two—four months and they then called the study site at the end of this period.

[1] = test system: subjects with a taste and/or smell disorder; assay: Taste and/or smell function after intranasal dosage units in a plume from a multi-dose nasal spray device (Examples 10-15); format: in vivo, human; conditions: once per day in each naris
From the text: The improvements in taste and/or smell function are evidenced by a decrease in the detection threshold for at least one odorant and/or tastant, a decrease in the recognition threshold for at least one odorant and/or tastant, and/or an increase in a magnitude estimation for at least one odorant and/or tastant.

CC(C)Cn1c(=O)n(C)c(=O)c2[nH]cnc21 [IBMX, 3-isobutyl-1-methylxanthine]
sGaw above the baseline measurement (asthmatic patients; after 30 minutes, inhaled dry powder 1 mg IBMX): 20%
taste and coughing (asthmatic patients; human, in vivo): without the unpleasant taste or the induction of coughing
increase in sGaw relative to 200 μg inhaled salbutamol (asthmatic patients; inhaled dry powder 1 mg IBMX): comparable
time until sGaw baseline is reached (asthmatic patients; inhaled dry powder 1 mg IBMX): one and a half
IC50 (PDE): 2 to 50 µM

O=C1CCc2cc(OCCCCc3nnnn3C3CCCCC3)ccc2N1 [cilostazol]
additional patients with improved smell function (patients with hyposmia): 15%
taste and/or smell function [1]: improvement in taste and/or smell function

COc1ccc(Cc2nccc3cc(OC)c(OC)cc23)cc1OC [papaverine]
taste and/or smell function [1]: improvement in taste and/or smell function

O=C(Nc1c(Cl)cncc1Cl)c1ccc(OC(F)F)c(OCC2CC2)c1 [roflumilast]
taste and/or smell function [1]: improvement in taste and/or smell function
